Series [1] relates to mock-infected MT-4 cells. Briefly: Cytotoxicity based on viability of mock-infected host cells (MTT method). In kind it is cell-based. The settings on record: mock-infected MT-4 cells, MTT method, 4 or 5 days at 37° C. The procedure: (§1) MT-4 cells were suspended in culture media at 2.5×10^5 cells/ml and infected with 1000 CCID50 (50% cell culture infective dose) of HIV. Immediately after virus infection, 100 μl of cell suspension was brought into each well of a flat-bottomed microtitray containing various concentrations of the test compounds. After 4 or 5 days incubation at 37° C., efficacy of the compounds was determined by the MTT method. Cytotoxicity of the compounds was assessed in parallel with their antiviral activity, based on viability of mock-infected host cells as determined by the MTT method.
(In general: Tetrazolium dyes change colour on reduction, which living cells bring about.)

Series [2] has as its system HIV. Nature of the series: microbe, parasite or virus in culture. In kind it is cell-based. The protocol:
Anti-HIV activity tests in vitro of the compounds according to the present invention were performed as described in J. Med. Chem, 34, 357, 1991. Inhibition by the compounds of virus-induced cytotoxic effect in MT-4 cells was measured as follows.
as §1

[3] abbreviates: Human immunodeficiency virus 1, MT4, HIV-infected MT-4 cells, MTT method, 4 or 5 days at 37° C., read-out: ED50 (the source's name).
Where [4] appears, read: Human immunodeficiency virus 1, MT4, read-out: ED50.

Converted amounts (≈) assume the structure as drawn. Where two headings read alike, the source gives them in different places.

In general, melting point refers to the temperature, or range, at which the solid turns liquid. Turning to `Cc1cc(C)cc(C(=O)c2c(C(C)C)c(=O)[nH]c(=O)n2Cc2ccc(OC(F)(F)F)cc2)c1` [Example 36, 1-(4-Trifluoromethoxybenzyl)-5-isopropyl-6-(3,5-dimethyl-benzoyl)-2,4-pyrimidinedione], the melting point fell in the range of 79 to 81 °C. The CD50 in series [1] was found to be 7.88 µg/mL. Further, the EC50 in series [2] (setting [3]) came out at 0.005 µg/mL (≈ 0.0109 µM).
Regarding `CCc1c(Sc2cc(C)cc(C)c2)n(Cc2ccccc2C#N)c(=O)[nH]c1=O` [Example 37, 1-(2-Cyanobenzyl)-5-ethyl-6-(3,5-dimethylphenyl)thio-2,4-pyrimidinedione], the melting point is 221 to 223 °C. Moreover, the CD50 in series [1] is >100.00 µg/mL. Further, the EC50 in series [2] (setting [3]) was determined as 0.043 µg/mL (≈ 0.11 µM).
The corresponding values for `Cc1cc(C)cc(Sc2c(C(C)C)c(=O)[nH]c(=O)n2Cc2ccccc2C#N)c1` [Example 38, 1-(2-Cyanobenzyl)-5-isopropyl-6-(3,5-dimethylphenyl)-thio-2,4-pyrimidinedione] are 238 to 240 °C, >100.00 µg/mL and 0.082 µg/mL (≈ 0.202 µM).
Take `CCc1c(Oc2cc(C)cc(C)c2)n(Cc2ccccc2C#N)c(=O)[nH]c1=O` [Example 39, 1-(2-Cyanobenzyl)-5-ethyl-6-(3,5-dimethylphenoxy)-2,4-pyrimidinedione]: the melting point was in the range of 267 to 270 °C. This compound also had a CD50 in series [1] of 60.47 µg/mL. Besides, the EC50 in series [2] (setting [3]) amounted to 0.619 µg/mL (≈ 1.65 µM).
The corresponding values for `Cc1cc(C)cc(Oc2c(C(C)C)c(=O)[nH]c(=O)n2Cc2ccccc2C#N)c1` [Example 40, 1-(2-Cyanobenzyl)-5-isopropyl-6-(3,5-dimethylphenoxy)-2,4-pyrimidinedione] are 276 to 278 °C, >100.00 µg/mL and > 100 µg/mL.
In the case of `CCc1c(C(=O)c2cc(C)cc(C)c2)n(Cc2ccccc2C#N)c(=O)[nH]c1=O` [Example 41, 1-(2-Cyanobenzyl)-5-ethyl-6-(3,5-dimethylbenzoyl)-2,4-pyrimidinedione], the melting point is 257 to 259 °C. The compound also yielded a CD50 in series [1] of 2.56 µg/mL. Further, the EC50 in series [2] (setting [3]) was 0.003 µg/mL (≈ 0.00774 µM).
In the same order, the values of `Cc1cc(C)cc(C(=O)c2c(C(C)C)c(=O)[nH]c(=O)n2Cc2ccccc2C#N)c1` [Example 42, 1-(2-Cyanobenzyl)-5-isopropyl-6-(3,5-dimethylbenzoyl)-2,4-pyrimidinedione] are 250 to 253 °C, >100.00 µg/mL and 0.005 µg/mL (≈ 0.0125 µM).
Compound `CCc1c(Sc2cc(C)cc(C)c2)n(Cc2cccc(C#N)c2)c(=O)[nH]c1=O` [Example 43, 1-(3-Cyanobenzyl)-5-ethyl-6-(3,5-dimethylphenyl)thio-2,4-pyrimidinedione] gave a melting point of 179 to 181 °C. Also, the CD50 in series [1] worked out at 1.77 µg/mL. The EC50 in series [2] (setting [4]) is 0.015 µg/mL (≈ 0.0383 µM).
The corresponding values for `Cc1cc(C)cc(Sc2c(C(C)C)c(=O)[nH]c(=O)n2Cc2cccc(C#N)c2)c1` [Example 44, 1-(3-Cyanobenzyl)-5-isopropyl-6-(3,5-dimethylphenyl)thio-2,4-pyrimidinedione] are 186 to 188 °C, 8.88 µg/mL and 0.008 µg/mL (≈ 0.0197 µM).
In the same order, the values of `CCc1c(Oc2cc(C)cc(C)c2)n(Cc2cccc(C#N)c2)c(=O)[nH]c1=O` [Example 45, 1-(3-Cyanobenzyl)-5-ethyl-6-(3,5-dimethylphenoxy)-2,4-pyrimidinedione] are 213 to 214 °C, >100.00 µg/mL and 0.061 µg/mL (≈ 0.162 µM).
As for `Cc1cc(C)cc(Oc2c(C(C)C)c(=O)[nH]c(=O)n2Cc2cccc(C#N)c2)c1` [Example 46, 1-(3-Cyanobenzyl)-5-isopropyl-6-(3,5-dimethylphenoxy)-2,4-pyrimidinedione], the melting point fell in the range of 160 to 162 °C. The compound further yielded a CD50 in series [1] of 9.20 µg/mL. Also, the EC50 in series [2] (setting [4]) turned out to be 0.023 µg/mL (≈ 0.0591 µM).
The corresponding values for `CCc1c(C(=O)c2cc(C)cc(C)c2)n(Cc2cccc(C#N)c2)c(=O)[nH]c1=O` [Example 47, 1-(3-Cyanobenzyl)-5-ethyl-6-(3,5-dimethylbenzoyl)-2,4-pyrimidinedione] are 206 to 207 °C, 2.53 µg/mL and 0.003 µg/mL (≈ 0.00774 µM).
The corresponding values for `Cc1cc(C)cc(C(=O)c2c(C(C)C)c(=O)[nH]c(=O)n2Cc2cccc(C#N)c2)c1` [Example 48, 1-(3-Cyanobenzyl)-5-isopropyl-6-(3,5-dimethylbenzoyl)-2,4-pyrimidinedione] are 202 to 204 °C, 8.07 µg/mL and 0.003 µg/mL (≈ 0.00747 µM).
For `CCc1c(Sc2cc(C)cc(C)c2)n(Cc2cc(C)cc(C)c2)c(=O)[nH]c1=O` [Example 49, 1-(3,5-Dimethylbenzyl)-5-ethyl-6-(3,5-dimethylphenyl)thio-2,4-pyrimidinedione], the melting point was in the range of 180 to 182 °C. In series [1], the CD50 amounted to 7.48 µg/mL. For the same compound, in series [2] (setting [4]), the EC50 is 0.014 µg/mL (≈ 0.0355 µM).
As to `Cc1cc(C)cc(Cn2c(Sc3cc(C)cc(C)c3)c(C(C)C)c(=O)[nH]c2=O)c1` [Example 50, 1-(3,5-Dimethylbenzyl)-5-isopropyl-6-(3,5-dimethylphenyl)thio-2,4-pyrimidinedione], the melting point fell in the range of 164 to 166 °C. This compound also gave a CD50 in series [1] of 8.70 µg/mL. Further, in series [2] (setting [4]), the EC50 came out at 0.015 µg/mL (≈ 0.0367 µM).
The corresponding values for `CCc1c(Oc2cc(C)cc(C)c2)n(Cc2cc(C)cc(C)c2)c(=O)[nH]c1=O` [Example 51, 1-(3,5-Dimethylbenzyl)-5-ethyl-6-(3,5-dimethylphenoxy)-2,4-pyrimidinedione] are 130 to 132 °C, 8.01 µg/mL and 0.13 µg/mL (≈ 0.343 µM).
In the case of `Cc1cc(C)cc(Cn2c(Oc3cc(C)cc(C)c3)c(C(C)C)c(=O)[nH]c2=O)c1` [Example 52, 1-(3,5-Dimethylbenzyl)-5-isopropyl-6-(3,5-dimethyl-phenoxy)-2,4-pyrimidinedione], the melting point was in the range of 175 to 177 °C. This compound had a CD50 in series [1] of 8.20 µg/mL. In series [2] (setting [4]), the EC50 worked out at 0.098 µg/mL (≈ 0.25 µM).
The corresponding values for `CCc1c(C(=O)c2cc(C)cc(C)c2)n(Cc2cc(C)cc(C)c2)c(=O)[nH]c1=O` [Example 53, 1-(3,5-Dimethylbenzyl)-5-ethyl-6-(3,5-dimethylbenzoyl)-2,4-pyrimidinedione] are 188 to 190 °C, 2.50 µg/mL and 0.014 µg/mL (≈ 0.0359 µM).
In the same order, the values of `Cc1cc(C)cc(Cn2c(C(=O)c3cc(C)cc(C)c3)c(C(C)C)c(=O)[nH]c2=O)c1` [Example 54, 1-(3,5-Dimethylbenzyl)-5-isopropyl-6-(3,5-dimethylbenzoyl)-2,4-pyrimidinedione] are 228 to 230 °C, 7.10 µg/mL and 0.014 µg/mL (≈ 0.0346 µM).
As for `CCc1c(Sc2cc(C)cc(C)c2)n(Cc2cc(OC)cc(OC)c2)c(=O)[nH]c1=O` [Example 55, 1-(3,5-Dimethoxybenzyl)-5-ethyl-6-(3,5-dimethylphenyl)thio-2,4-pyrimidinedione], the melting point lay in the range of 181 to 183 °C. The same compound came in with a CD50 in series [1] of 10.8 µg/mL. Besides, the EC50 in series [2] (setting [3]) was 0.071 µg/mL (≈ 0.166 µM).
In the same order, the values of `COc1cc(Cn2c(Sc3cc(C)cc(C)c3)c(C(C)C)c(=O)[nH]c2=O)cc(OC)c1` [Example 56, 1-(3,5-Dimethoxybenzyl)-5-isopropyl-6-(3,5-dimethyl-phenyl)thio-2,4-pyrimidinedione] are 157 to 160 °C, 11.34 µg/mL and 0.21 µg/mL (≈ 0.477 µM).
The compound `CCc1c(Oc2cc(C)cc(C)c2)n(Cc2cc(OC)cc(OC)c2)c(=O)[nH]c1=O` [Example 57, 1-(3,5-Dimethoxybenzyl)-5-ethyl-6-(3,5-dimethylphenoxy)-2,4-pyrimidinedione] yielded a melting point of 154 to 156 °C. In series [1], this compound returned a CD50 of 36.80 µg/mL. The EC50 in series [2] (setting [3]) amounted to 1.37 µg/mL (≈ 3.34 µM).
The corresponding values for `COc1cc(Cn2c(Oc3cc(C)cc(C)c3)c(C(C)C)c(=O)[nH]c2=O)cc(OC)c1` [Example 58, 1-(3,5-Dimethoxybenzyl)-5-isopropyl-6-(3,5-dimethylphenoxy)-2,4-pyrimidinedione] are 162 to 164 °C, >100.00 µg/mL and 0.51 µg/mL (≈ 1.2 µM).
The corresponding values for `CCc1c(C(=O)c2cc(C)cc(C)c2)n(Cc2cc(OC)cc(OC)c2)c(=O)[nH]c1=O` [Example 59, 1-(3,5-Dimethoxybenzyl)-5-ethyl-6-(3,5-dimethylbenzoyl)-2,4-pyrimidinedione] are 208 to 210 °C, 69.00 µg/mL and 0.31 µg/mL (≈ 0.734 µM).
In the case of `COc1cc(Cn2c(C(=O)c3cc(C)cc(C)c3)c(C(C)C)c(=O)[nH]c2=O)cc(OC)c1` [Example 60, 1-(3,5-Dimethoxybenzyl)-5-isopropyl-6-(3,5-dimethyl-benzoyl)-2,4-pyrimidinedione], the melting point fell in the range of 220 to 222 °C. The same compound registered a CD50 in series [1] of 12.09 µg/mL. In series [2] (setting [3]), the EC50 turned out to be 0.23 µg/mL (≈ 0.527 µM).
For the compound `CCc1c(Sc2cc(C)cc(C)c2)n(Cc2cc(C(F)(F)F)cc(C(F)(F)F)c2)c(=O)[nH]c1=O` [Example 61, 1-[3,5-Bis(trifluoromethyl)benzyl]-5-ethyl-6-(3,5-dimethyl-phenyl)thio-2,4-pyrimidinedione], the melting point fell in the range of 212 to 213 °C. In addition, the CD50 in series [1] is >100.00 µg/mL. For the same compound, in series [2] (setting [3]), the EC50 was > 100 µg/mL.

Source of the values: patent US6987114B1, “Antiviral pyrimidinedione derivatives and process for the preparation thereof” (Samjin Pharmaceutical Co., Ltd, priority 1999, dated 2006).
